From patent publication US20160151337A1, “ANNELATED PYRROLES AND THEIR USE AS CRAC INHIBITORS” (Grünenthal GmbH, priority 2013, published 2016)

Experiments:
CRAC channel = target: T1, CRAC channel (Homo sapiens, UniProt Q96D31); test: HEK Calcium Influx Assay (FLIPR), inhibition of store-operated Ca2+ entry after thapsigargin store depletion; assay type: cell-based; settings: 10 μM compound, HEK293 cells, read-out: % inhib. [@ 10 μM] FLIPR
T1 construct: endogenous in cells; host or cells: HEK293 (ECACC), untransfected
Protocol: The effect of compounds of the invention on intracellular [Ca^2+] was tested in the HEK293 cell line (ECACC).
HEK293 cells were cultured in DMEM/F12/Glutamax (Gibco) containing 10% FCS (Gibco), and maintained at 37° C., 5% CO2. Cell were split twice a week [3*10^6 (Mon-Thu) and 1*10^6 (Thu-Mon) cells/50 ml medium in 1-175 ZK culture flasks, respectively]. Twenty four hours pre-experiment, cells were seeded on 96 well plates (Poly-D-Lysine 96 well Black/Clear Plate, BD Biocoat REF 356640) at a density of 40,000 cells/well in DMEM/F12 (Gibco) containing 10% FCS (Gibco), and maintained at 37° C., 5% CO2.
Prior to store-depletion, cell culture medium was removed and cells were loaded with the Calcium-sensitive fluorescent dye comprised within the Calcium-4-assay kit (Molecular Devices) in nominally Ca^2+-free HBS buffer (140 mM NaCl, 4 mM KCl, 0.2 mM MgCl2, 11 mM D-glucose, and 10 mM HEPES, pH 7.4) according to manufacturer's instruction for 60 min at 37° C., 5% CO2.
Passive depletion of intracellular Ca^2+-stores was then triggered by employing the SERCA inhibitor thapsigargin (2 μM final) for 10 min in the dark (RT). To prevent immediate Ca^2+-entry via the activated store-operated channels (SOCs), cells were maintained in Ca^2+-free HBS buffer comprising 100 μM EGTA during store-depletion.
Intracellular changes in [Ca^2+] were subsequently monitored with the FLIPR device (Molecular Devices). In brief, baseline imaging post-store depletion was allowed for 1 min before adjusting the extracellular buffer to 3 mM CaCl2. Increases in intracellular [Ca^2+] due to pre-activated SOC channels were monitored for 15 min until intracellular Ca^2+ levels had declined into a steady-state. Finally, compounds were administered, and Ca^2+ signals were recorded for additional 10 min.
Inhibition of endogenous SOC in HEK293 cells was quantified employing the average Ca^2+ signal measured from 9.5-10 min post-administration. Zero percent inhibition (MAX) was defined as the Ca^2+ signal recorded from wells to which DMSO-only had been added instead of compound. Hundred percent inhibition (MIN) was defined as the signal obtained from wells in which cells haven't been treated with TG prior to Ca^2+ addition and to which DMSO-only had been added instead of compound. For routine IC50 determinations of compounds, 8 concentrations of a serial dilution (1:3.16) were tested, starting off from 10 μM. Reliable IC50's could consequently be determined only, if they were at least sub 2.5-3 μM.

[1] = system: Interleukin-2 (IL-2) production/release in Jurkat T cells; test: Jurkat IL-2 Production Assay (PHA-stimulated, IL-2 AlphaLisa); assay type: cell-based; settings: Homo sapiens, PHA 15 μg/ml, 22 h, inhibition of IL-2 production
Protocol: The effect of compounds of the invention on Interleukin-2 (IL-2) production/release was tested in the Jurkat T cell line (ECACC) clone E6-1.
Jurkat T cells were cultured in DMEM/F12/Glutamax (Gibco) containing 10% FCS (Gibco), and maintained at 37° C., 5% CO2. Cells were split twice a week [5*10^6 (Mon-Thu) and 1*10^7 (Thu-Mon) cells/50 ml medium in 1-175 ZK culture flasks, respectively].
Prior to experiment, cells were seeded on 96 well plates (Cellstar 96 Well; Cat No. 655180, Greiner bio-one) at a density of 5*10^5 cells/well in DMEM/F12/Glutamax (Gibco) containing 10% FCS (Gibco), and incubated for 60 min at 37° C., 5% CO2. Subsequently, compounds were added and cells were allowed to incubate for 30 min at 37° C., 5% CO2. Cells were then stimulated with 15 μg/ml Phyto-hemagglutinin (PHA; Sigma) for 22 hours at 37° C., 5% CO2.
Before sampling of the supernatants, cells were spun down (200*g/5 min/RT). The amount of IL-2 released into the supernatant was quantified with the human IL-2 AlphaLisa kit (Perkin Elmer) according to manufacturer's instructions. Luminescence proximity measurements were carried out in the Synergy H4 reader (BioTek) employing the fluorescence setting of the reader (ex: 680/30 nm; em: 620/40 nm).
Inhibition of IL-2 production/release in/from Jurkat T cells was quantified as follows: Zero percent inhibition (MAX) was defined as the [IL-2] determined in supernatants derived from cells to which PHA & DMSO-only had been added instead of compound. Hundred percent inhibition (MIN) was defined as the [IL-2] determined in supernatants derived from cells that had been pre-treated with 1 μM CyclosporineA (Sigma) before the addition of 15 μg/ml PHA.
For routine IC50 determinations of compounds, 8 concentrations of a serial dilution (1:3.16) were tested, starting off from 10 μM.

T1 sequence (Q96D31 whole entry): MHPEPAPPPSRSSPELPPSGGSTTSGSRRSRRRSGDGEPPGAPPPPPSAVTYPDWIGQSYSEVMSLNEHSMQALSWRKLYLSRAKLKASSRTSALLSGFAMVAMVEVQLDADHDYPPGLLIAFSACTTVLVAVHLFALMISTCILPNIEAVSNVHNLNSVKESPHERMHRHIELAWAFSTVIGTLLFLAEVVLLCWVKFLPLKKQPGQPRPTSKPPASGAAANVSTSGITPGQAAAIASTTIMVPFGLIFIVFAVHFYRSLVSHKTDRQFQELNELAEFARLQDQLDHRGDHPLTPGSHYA

Compound	inhibition at 10 µM (CRAC channel)	IC50 [1]
Cc1cc(Cl)c(F)cc1N1CCc2[nH]c(-c3c(F)cccc3F)cc2C1 [Example 71, 5-(4-Chloro-5-fluoro-2-methyl-phenyl)-2-(2,6-difluoro-phenyl)-4,5,6,7-tetrahydro-1H-pyrrolo[3,2-c]pyridine]	< 50%	1 to 5 µM
COc1cc(C(F)(F)F)ncc1N1CCc2[nH]c(-c3c(F)cccc3F)cc2C1 [Example 112, 2-(2,6-Difluoro-phenyl)-5-[4-methoxy-6-(trifluoromethyl)-pyridin-3-yl]-4,5,6,7-tetrahydro-1H-pyrrolo[3,2-c]pyridine]	< 50%	< 0.5 µM
COc1cc2c(cc1N1CCc3[nH]c(C4CCCCC4)cc3C1)CCS2(=O)=O [Example 103, 5-(2-Cyclohexyl-4,5,6,7-tetrahydro-1H-pyrrolo[3,2-c]pyridin-5-yl)-6-methoxy-2,3-dihydro-benzo[b]thiophene 1,1-dioxide]	< 50%	< 0.5 µM
CCn1nc(C(F)(F)F)cc1N1CCc2[nH]c(-c3c(F)cccc3F)cc2C1 [Example 130, 2-(2,6-Difluoro-phenyl)-5-[2-ethyl-5-(trifluoromethyl)-2H-pyrazol-3-yl]-4,5,6,7-tetrahydro-1H-pyrrolo[3,2-c]pyridine]	> 70%	< 0.5 µM
Cc1cc(S(C)(=O)=O)c(F)cc1N1CCc2[nH]c(C3CCCCC3)cc2C1 [Example 110, 2-Cyclohexyl-5-(5-fluoro-2-methyl-4-methylsulfonyl-phenyl)-4,5,6,7-tetrahydro-1H-pyrrolo[3,2-c]pyridine]	< 50%	1 to 5 µM
Cc1cc(C(F)(F)F)ncc1N1CCc2[nH]c(-c3cncc(F)c3C)cc2C1 [Example 141, 2-(5-Fluoro-4-methyl-pyridin-3-yl)-5-[4-methyl-6-(trifluoromethyl)-pyridin-3-yl]-4,5,6,7-tetrahydro-1H-pyrrolo[3,2-c]pyridine]	> 70%	< 0.5 µM
Cc1cc(C(F)(F)F)ncc1N1CCc2[nH]c(C3CCCOC3)cc2C1 (stereo not drawn) [Example 134, 5-[4-Methyl-6-(trifluoromethyl)-pyridin-3-yl]-2-tetrahydro-pyran-3-yl-4,5,6,7-tetrahydro-1H-pyrrolo[3,2-c]pyridine]	> 70%	1 to 5 µM
Cc1cc(S(C)(=O)=O)ncc1N1CCc2[nH]c(-c3cccnc3C)cc2C1 [Example 83, 5-(4-Methyl-6-methylsulfonyl-pyridin-3-yl)-2-(2-methyl-pyridin-3-yl)-4,5,6,7-tetrahydro-1H-pyrrolo[3,2-c]pyridine]	> 70%	1 to 5 µM
Cc1cc(C)c(-c2cc3c([nH]2)CCN(c2cnc(S(C)(=O)=O)cc2C)C3)cn1 [Example 92, 2-(4,6-Dimethyl-pyridin-3-yl)-5-(4-methyl-6-methylsulfonyl-pyridin-3-yl)-4,5,6,7-tetrahydro-1H-pyrrolo[3,2-c]pyridine]	> 70%	1 to 5 µM
COC1(c2cc(N3CCc4[nH]c(-c5c(F)cccc5F)cc4C3)n(C)n2)CC1 [Example 137, 2-(2,6-Difluoro-phenyl)-5-[5-(1-methoxy-cyclopropyl)-2-methyl-2H-pyrazol-3-yl]-4,5,6,7-tetrahydro-1H-pyrrolo[3,2-c]pyridine]	> 70%	1 to 5 µM
Cc1cc(S(=O)(=O)N(C)C)ccc1N1CCc2[nH]c(-c3c(F)cccc3F)cc2C1 [Example 14, 4-[2-(2,6-Difluoro-phenyl)-4,5,6,7-tetrahydro-1H-pyrrolo[3,2-c]pyridin-5-yl]-N,N,3-trimethyl-benzenesulfonic acid amide]	< 50%	< 0.5 µM
Cc1sc(-c2ncco2)nc1N1CCc2[nH]c(-c3c(F)cccc3Cl)cc2C1 [Example 62, 2-[4-[2-(2-Chloro-6-fluoro-phenyl)-4,5,6,7-tetrahydro-1H-pyrrolo[3,2-c]pyridin-5-yl]-5-methyl-thiazol-2-yl]-oxazole]	> 70%	–
Cc1cc(Cl)ncc1N1CCc2[nH]c(-c3c(F)cccc3F)cc2C1=O [Example 38, 5-(6-Chloro-4-methyl-pyridin-3-yl)-2-(2,6-difluoro-phenyl)-1,5,6,7-tetrahydro-pyrrolo[3,2-c]pyridin-4-one]	> 70%	–
Cc1cc(C(=O)N(C)C)ccc1N1CCc2[nH]c(-c3c(F)cccc3F)cc2C1 [Example 81, 4-[2-(2,6-Difluoro-phenyl)-4,5,6,7-tetrahydro-1H-pyrrolo[3,2-c]pyridin-5-yl]-N,N,3-trimethyl-benzamide]	> 70%	–
Cc1cc(Cl)ncc1N1CCc2[nH]c(-c3c(F)cccc3Cl)cc2C1=O [Example 45, 2-(2-Chloro-6-fluoro-phenyl)-5-(6-chloro-4-methyl-pyridin-3-yl)-1,5,6,7-tetrahydro-pyrrolo[3,2-c]pyridin-4-one]	> 70%	–
Cc1cc(N2CCc3[nH]c(-c4c(F)cccc4F)cc3C2)n(C)n1 [Example 58, 2-(2,6-Difluoro-phenyl)-5-(2,5-dimethyl-2H-pyrazol-3-yl)-4,5,6,7-tetrahydro-1H-pyrrolo[3,2-c]pyridine]	> 70%	–
Cc1sc(-c2ccccn2)nc1N1CCc2[nH]c(-c3c(F)cccc3F)cc2C1=O [Example 5, 2-(2,6-Difluoro-phenyl)-5-(5-methyl-2-pyridin-2-yl-thiazol-4-yl)-1,5,6,7-tetrahydro-pyrrolo[3,2-c]pyridin-4-one]	50 to 70%	–
COc1cc(C)c(N2CCc3[nH]c(-c4c(F)cccc4F)cc3C2=O)cn1 [Example 39, 2-(2,6-Difluoro-phenyl)-5-(6-methoxy-4-methyl-pyridin-3-yl)-1,5,6,7-tetrahydro-pyrrolo[3,2-c]pyridin-4-one]	50 to 70%	–
COc1ncccc1-c1cc2c([nH]1)CCN(c1cnc(S(C)(=O)=O)cc1C)C2 [Example 98, 2-(2-Methoxy-pyridin-3-yl)-5-(4-methyl-6-methylsulfonyl-pyridin-3-yl)-4,5,6,7-tetrahydro-1H-pyrrolo[3,2-c]pyridine]	> 70%	–
Cc1ccc(C#N)cc1N1CCc2[nH]c(-c3c(F)cccc3F)cc2C1 [Example 29, 3-[2-(2,6-Difluoro-phenyl)-4,5,6,7-tetrahydro-1H-pyrrolo[3,2-c]pyridin-5-yl]-4-methyl-benzonitrile]	50 to 70%	–
Cc1sccc1N1CCc2[nH]c(-c3c(F)cccc3F)cc2C1 [Example 55, 2-(2,6-Difluoro-phenyl)-5-(2-methyl-thiophen-3-yl)-4,5,6,7-tetrahydro-1H-pyrrolo[3,2-c]pyridine]	> 70%	–
Cc1sccc1N1CCc2[nH]c(-c3c(F)cccc3Cl)cc2C1 [Example 60, 2-(2-Chloro-6-fluoro-phenyl)-5-(2-methyl-thiophen-3-yl)-4,5,6,7-tetrahydro-1H-pyrrolo[3,2-c]pyridine]	> 70%	–
